From patent US20050221317A1, “Use of an epitope of vascular endothelial growth factor receptor kdr/flk-1” (AstraZeneca AB, priority 2002, published 2005)

Molecular target: T1, KDR/Flk-1 receptor epitope Y1214 (Homo sapiens, UniProt P35968)
T1 construct: host or cells: HUVEC (human umbilical vein endothelial cells)
Test: Phosphorylation of the Y1214 epitope of KDR/Flk-1 in VEGF-treated HUVECs (Western blot with anti-Y1214 antibody)
Assay type: cell-based
Details: VEGF-treated HUVEC cell lysate, 0.007-5.0 uM compound, FIG. 1
Method: HUVECs were obtained from TCS Cellworks, Buckingham, UK (Catalogue number ZHS 8965) and cultured in Large Vessel Endothelial Cell Basal Medium+recommended 5 supplements obtained from TCS Cellworks (catalogue numbers ZHM 2951 and ZHS 8965). Cells were used when close to confluence in 3×75 cm^2 tissue culture flasks. Prior to treatment with inhibitor cells were cultured overnight in Basal Medium without supplements.
HUVECS were treated with inhibitors as follows. […] After 82 minutes 50 ng/ml VEGF was added to the cells and the cells incubated for a further 8 minutes at 37° C. After this further incubation the culture medium was removed from the cells and the cells lysed with 2.5 ml sample buffer [Sample buffer: 4 parts NuPage sample buffer (Novex, NP0007, Invitrogen, Paisley, Scotland) to 1 part distilled water]. The lysate was collected, 3 μl of β-mercaptoethanol added and heated to 95° C. for 10 minutes to ensure complete reduction and denaturation. The lysates can be stored at −20° C. until analysed.
Lysates were analysed using SDS polyacrylamide gel electrophoresis (PAGE) to separate the proteins within the lysates. […]
Nitrocellulose membranes were incubated for 1 hour in 5% solution of dried, skimmed milk powder in PBST [Marvel/PBST] at room temperature. […] The light from this is detected by photographic film, for example Kodak Biomax ML.

T1 sequence (P35968 20-1356): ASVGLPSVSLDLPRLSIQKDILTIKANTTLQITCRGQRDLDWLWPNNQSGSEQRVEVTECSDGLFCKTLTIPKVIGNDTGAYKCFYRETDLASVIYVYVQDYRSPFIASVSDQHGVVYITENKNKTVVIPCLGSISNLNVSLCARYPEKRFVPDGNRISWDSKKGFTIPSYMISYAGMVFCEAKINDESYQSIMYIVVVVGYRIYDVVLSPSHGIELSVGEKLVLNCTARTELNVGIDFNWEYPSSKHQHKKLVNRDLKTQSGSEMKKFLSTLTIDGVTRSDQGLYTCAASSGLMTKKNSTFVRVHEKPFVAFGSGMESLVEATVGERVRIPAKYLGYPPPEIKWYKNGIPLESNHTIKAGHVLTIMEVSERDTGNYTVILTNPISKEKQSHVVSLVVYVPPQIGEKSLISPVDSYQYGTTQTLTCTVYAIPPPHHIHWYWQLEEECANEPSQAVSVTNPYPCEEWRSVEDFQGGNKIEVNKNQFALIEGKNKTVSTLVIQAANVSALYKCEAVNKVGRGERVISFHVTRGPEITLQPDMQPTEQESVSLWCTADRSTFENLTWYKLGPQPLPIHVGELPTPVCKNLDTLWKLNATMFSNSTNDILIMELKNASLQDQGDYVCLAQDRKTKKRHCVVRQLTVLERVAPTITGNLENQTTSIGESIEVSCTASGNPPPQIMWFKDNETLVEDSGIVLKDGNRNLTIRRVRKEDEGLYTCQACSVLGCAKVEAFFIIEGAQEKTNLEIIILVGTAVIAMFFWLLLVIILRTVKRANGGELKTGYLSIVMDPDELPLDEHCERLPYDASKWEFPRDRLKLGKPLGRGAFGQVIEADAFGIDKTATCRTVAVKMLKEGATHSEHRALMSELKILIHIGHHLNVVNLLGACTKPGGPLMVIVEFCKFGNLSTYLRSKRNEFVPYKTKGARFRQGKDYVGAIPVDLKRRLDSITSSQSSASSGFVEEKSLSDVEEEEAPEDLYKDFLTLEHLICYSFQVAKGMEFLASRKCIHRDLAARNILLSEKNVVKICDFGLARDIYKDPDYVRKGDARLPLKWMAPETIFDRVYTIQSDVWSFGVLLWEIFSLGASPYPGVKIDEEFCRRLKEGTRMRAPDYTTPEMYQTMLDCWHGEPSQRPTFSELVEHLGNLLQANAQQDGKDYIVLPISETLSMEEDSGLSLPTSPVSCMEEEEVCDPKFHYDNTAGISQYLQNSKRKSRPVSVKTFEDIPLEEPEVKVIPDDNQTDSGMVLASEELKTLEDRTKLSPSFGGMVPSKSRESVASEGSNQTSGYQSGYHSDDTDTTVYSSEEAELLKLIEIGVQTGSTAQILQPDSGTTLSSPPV

In the case of `COc1cc2c(Oc3ccc4[nH]c(C)cc4c3F)ncnc2cc1OCCCN1CCCCC1` [4[(4-fluoro-2-methyl-1H-indol-5-yl)oxy]-6-methoxy-7-(3-piperidin-1-ylpropoxy)quinazoline], the “phosphorylation of the Y1214 epitope” value is reported as “dose dependent decrease in phosporylation”.
